{
  "source": "patent US5371099A",
  "about": "“Phenyl carboxamide isoxazoles” (Roussel-Uclaf, priority 1992, dated 1994)",
  "key": {"[1]": {"system": "Delayed-type hypersensitivity mouse paw oedema", "experiment": "Test 2: Delayed-type hypersensitivity mouse paw oedema (DTH-M)", "type": "in vivo, mouse (male CD-1)", "conditions": "po, 24 h; for inhibition in vivo at 100 mg/kg: 100 mg/kg p.o.", "protocol": "Delayed-type hypersensitivity mouse paw oedema (DTH-M)\nGroups of 8 to 10 mice, male CD-1 weighing 25-30 g were sensitized by the subcutaneous injection of 1 mg of methylated bovine serum albumin (MBSA) in 0.2 ml volumes of saline/Freund's complete adjuvant (FCA) emulsion. Negative control groups received injections of saline/FCA emulsion. DTH paw oedema responses were assessed twenty-four hours after the right hind foot pad challenge with 0.1 mg of MBSA in 0.05 ml volumes of saline on day seven after sensitization. Contralateral paws received control saline injections. The test compounds or control vehicles were orally administered daily on days four, five, six and twice on day seven, one hour before and six hours after MBSA challenge.\n(§1) Doses are given in units of mg/kg p.o."}, "[2]": {"system": "Carrageenan rat paw oedema", "experiment": "Test 1: Carrageenan rat paw oedema (PO-R)", "type": "in vivo, rat (male CFHB)", "conditions": "3 h; for inhibition in vivo at 50 mg/kg: 50 mg/kg p.o.; for inhibition in vivo at 10 mg/kg: 10 mg/kg p.o.", "protocol": "Carrageenan rat paw oedema (PO-R)\nOne hour after the oral administration of the test compounds or control vehicle to groups of 6 to 12 male CFHB rats, weighing 160-180 g, 1 mg of carrageenan dissolved in 0.2 ml of saline was injected into the right hind foot pad. Contralateral paws received control saline injections. Paw oedema responses were assessed three hours later.\nas §1"}, "[3]": {"system": "Delayed-type hypersensitivity rat paw oedema", "experiment": "Test 3: Delayed-type hypersensitivity rat paw oedema (DTH-R)"}, "[4]": {"experiment": "Pharmacokinetic comparison, plasma concentrations of parent compound and active metabolite in mice", "type": "in vivo", "conditions": "30 mg/kg orally", "protocol": "A pharmacokinetic comparison was made between the compound of Example 8 in which R5 is methyl and the corresponding known compound in which R5 is hydrogen. Each compound was administered orally to mice at a dose of 30 mg/kg and plasma concentrations of the parent compound and the corresponding active metabolite were determined at various time points after administration."}, "[5]": {"conditions": "Rattus norvegicus, po, 24 h, read-out: % Inhibition (Test 3, DTH-R)"}},
  "data": [
    {"smiles": "Cc1onc(C(=O)O)c1C(=O)Nc1ccc([N+](=O)[O-])cc1", "note": "[Example 1, 5-methyl-4-[N-(4-nitrophenyl)]carbamoyl-3-isoxazolecarboxylic acid]", "values": [
      {"measurement": "inhibition in vivo at 100 mg/kg", "setting": "[1]", "result": 41, "unit": "%"},
      {"measurement": "inhibition in vivo at 50 mg/kg", "setting": "[2]", "result": -2, "unit": "%"},
      {"measurement": "inhibition in vivo at 50 mg/kg", "setting": "[3]; [5]", "result": 28, "unit": "%"}
    ]},
    {"smiles": "Cc1onc(C(=O)O)c1C(=O)Nc1ccc(C#N)cc1", "note": "[Example 2, 4-[N-(4-cyanophenyl)]carbamoyl-5-methyl-3-isoxazolecarboxylic acid]", "values": [
      {"measurement": "inhibition in vivo at 100 mg/kg", "setting": "[1]", "result": 27, "unit": "%"},
      {"measurement": "inhibition in vivo at 50 mg/kg", "setting": "[2]", "result": -25, "unit": "%"},
      {"measurement": "inhibition in vivo at 50 mg/kg", "setting": "[3]; [5]", "result": -47, "unit": "%"}
    ]},
    {"smiles": "Cc1cc(NC(=O)c2c(C(=O)O)noc2C)ccc1Br", "note": "[Example 3, 4-[N-(4-bromo-3-methyl)phenyl]carbamoyl-5-methyl-3-isoxazolecarboxylic acid]", "values": [
      {"measurement": "inhibition in vivo at 100 mg/kg", "setting": "[1]", "result": 35, "unit": "%"},
      {"measurement": "inhibition in vivo at 50 mg/kg", "setting": "[2]", "result": -10, "unit": "%"},
      {"measurement": "inhibition in vivo at 50 mg/kg", "setting": "[3]; [5]", "result": -4, "unit": "%"}
    ]},
    {"smiles": "Cc1cc(NC(=O)c2c(C(=O)O)noc2C)ccc1Cl", "note": "[Example 4, 4-[N-(4-chloro-3-methyl)phenyl]carbamoyl-5-methyl-3-isoxazolecarboxylic acid]", "values": [
      {"measurement": "inhibition in vivo at 100 mg/kg", "setting": "[1]", "result": 24, "unit": "%"},
      {"measurement": "inhibition in vivo at 50 mg/kg", "setting": "[2]", "result": -10, "unit": "%"},
      {"measurement": "inhibition in vivo at 50 mg/kg", "setting": "[3]; [5]", "result": 6, "unit": "%"}
    ]},
    {"smiles": "Cc1cc(NC(=O)c2c(C(=O)O)noc2C)ccc1C(F)(F)F", "note": "[Example 5, 5-methyl-4-[N-(3-methyl-4-trifluoromethyl)phenyl]carbamoyl-3-isoxazolecarboxylic acid]", "values": [
      {"measurement": "inhibition in vivo at 100 mg/kg", "setting": "[1]", "result": 44, "unit": "%"},
      {"measurement": "inhibition in vivo at 50 mg/kg", "setting": "[2]", "result": 18, "unit": "%"},
      {"measurement": "inhibition in vivo at 10 mg/kg", "setting": "[3]; [5]", "result": 44, "unit": "%"},
      {"measurement": "inhibition in vivo at 50 mg/kg", "setting": "[3]; [5]", "result": 95, "unit": "%"}
    ]},
    {"smiles": "Cc1cc(NC(=O)c2c(C(=O)O)noc2C)ccc1C#N", "note": "[Example 6, 4-[N-(4-cyano-3-methyl)phenyl]carbamoyl-5-methyl-3-isoxazolecarboxylic acid]", "values": [
      {"measurement": "inhibition in vivo at 100 mg/kg", "setting": "[1]", "result": 5, "unit": "%"},
      {"measurement": "inhibition in vivo at 50 mg/kg", "setting": "[2]", "result": 5, "unit": "%"},
      {"measurement": "inhibition in vivo at 50 mg/kg", "setting": "[3]; [5]", "result": 25, "unit": "%"}
    ]},
    {"smiles": "Cc1onc(C(=O)O)c1C(=O)Nc1ccc(SC(F)(F)F)cc1", "note": "[Example 7, 5-methyl-4-[N-(4-trifluoromethylthio)phenyl]carbamoyl-3-isoxazolecarboxylicacid]", "values": [
      {"measurement": "inhibition in vivo at 100 mg/kg", "setting": "[1]", "result": 14, "unit": "%"},
      {"measurement": "inhibition in vivo at 50 mg/kg", "setting": "[2]", "result": 1, "unit": "%"},
      {"measurement": "inhibition in vivo at 10 mg/kg", "setting": "[3]; [5]", "result": 42, "unit": "%"},
      {"measurement": "inhibition in vivo at 50 mg/kg", "setting": "[3]; [5]", "result": 73, "unit": "%"}
    ]},
    {"smiles": "Cc1cc(NC(=O)c2c(C(=O)O)noc2C)ccc1OC(F)(F)F", "note": "[Example 8, 5-methyl-4-[N-(3-methyl-4-trifluoromethoxy)phenyl]carbamoyl-3-isoxazolecarboxylic acid]", "values": [
      {"measurement": "detectability of the active metabolite 24 hours after administration", "setting": "[4]; plasma, 24 hours", "result": "no metabolite detectable"},
      {"measurement": "inhibition in vivo at 100 mg/kg", "setting": "[1]", "result": 48, "unit": "%"},
      {"measurement": "inhibition in vivo at 10 mg/kg", "setting": "[2]", "result": 16, "unit": "%"},
      {"measurement": "inhibition in vivo at 10 mg/kg", "setting": "[3]; [5]", "result": 34, "unit": "%"},
      {"measurement": "inhibition in vivo at 50 mg/kg", "setting": "[3]; [5]", "result": 79, "unit": "%"}
    ]},
    {"smiles": "O=C(O)c1noc(C2CC2)c1C(=O)Nc1ccc(C(F)(F)F)cc1", "note": "[Example 9, 5-cyclopropyl-4-[N-(4-trifluoromethyl)phenyl]carbamoyl-3-isoxazolecarboxylic acid]", "values": [
      {"measurement": "pharmacokinetics compared with known compound in which R5 is hydrogen", "setting": "[4]; effect of methyl substituent", "result": "improved pharmacokinetics"},
      {"measurement": "inhibition in vivo at 100 mg/kg", "setting": "[1]", "result": 72, "unit": "%"},
      {"measurement": "inhibition in vivo at 10 mg/kg", "setting": "[2]", "result": -24, "unit": "%"},
      {"measurement": "inhibition in vivo at 10 mg/kg", "setting": "[3]; [5]", "result": 45, "unit": "%"},
      {"measurement": "inhibition in vivo at 50 mg/kg", "setting": "[3]; [5]", "result": 86, "unit": "%"}
    ]},
    {"smiles": "Cc1cc(NC(=O)c2c(C(=O)O)noc2C2CC2)ccc1C(F)(F)F", "note": "[Example 10, 5-cyclopropyl-4-[N-(3-methyl-4-trifluoromethyl)phenyl]carbamoyl-3-isoxazolecarboxylic acid]", "values": [
      {"measurement": "inhibition in vivo at 100 mg/kg", "setting": "[1]", "result": 12, "unit": "%"},
      {"measurement": "inhibition in vivo at 50 mg/kg", "setting": "[2]", "result": 5, "unit": "%"},
      {"measurement": "inhibition in vivo at 50 mg/kg", "setting": "[3]; [5]", "result": 73, "unit": "%"}
    ]},
    {"smiles": "O=C(O)c1noc(C2CC2)c1C(=O)Nc1ccc(OC(F)(F)F)cc1", "note": "[Example 11]", "values": [
      {"measurement": "inhibition in vivo at 30 mg/kg", "setting": "[1]; 30 mg/kg p.o.", "result": 37, "unit": "%"},
      {"measurement": "inhibition in vivo at 100 mg/kg", "setting": "[1]", "result": 65, "unit": "%"},
      {"measurement": "inhibition in vivo at 3 mg/kg", "setting": "[2]; 3 mg/kg p.o.", "result": -2, "unit": "%"},
      {"measurement": "toxicity printed in place of % Inhibition (Test 3, DTH-R)", "setting": "[3]; 50 mg/kg p.o.", "result": "Toxic"},
      {"measurement": "inhibition in vivo at 3 mg/kg", "setting": "[3]; [5]", "result": 65, "unit": "%"},
      {"measurement": "inhibition in vivo at 10 mg/kg", "setting": "[3]; [5]", "result": 95, "unit": "%"}
    ]},
    {"smiles": "O=C(O)c1noc(C2CC2)c1C(=O)Nc1ccc(SC(F)(F)F)cc1", "note": "[Example 12, 5-cyclopropyl-4-[N-(4-trifluoromethylthio)phenyl]carbamoyl-3-isoxazolecarboxylic acid]", "values": [
      {"measurement": "inhibition in vivo at 100 mg/kg", "setting": "[1]", "result": 36, "unit": "%"},
      {"measurement": "inhibition in vivo at 10 mg/kg", "setting": "[2]", "result": 11, "unit": "%"},
      {"measurement": "inhibition in vivo at 10 mg/kg", "setting": "[3]; [5]", "result": 75, "unit": "%"}
    ]},
    {"smiles": "Cc1cc(NC(=O)c2c(C(=O)O)noc2C2CC2)ccc1OC(F)(F)F", "note": "[Example 13, 5-cyclopropyl-4-[N-(3-methyl-4-trifluoromethoxy)phenyl]carbamoyl-3-isoxazolecarboxylic acid]", "values": [
      {"measurement": "inhibition in vivo at 100 mg/kg", "setting": "[1]", "result": 52, "unit": "%"},
      {"measurement": "inhibition in vivo at 10 mg/kg", "setting": "[2]", "result": 5, "unit": "%"},
      {"measurement": "inhibition in vivo at 10 mg/kg", "setting": "[3]; [5]", "result": 47, "unit": "%"}
    ]},
    {"smiles": "CCOC(=O)c1noc(C)c1C(=O)Nc1ccc(C(F)(F)F)c(C)c1", "note": "[Example 18, Ethyl 5-methyl-4-[N-(3-methyl-4-trifluoromethyl)phenyl]carbamoyl-3-isoxazolecarboxylate]", "values": [
      {"measurement": "inhibition in vivo at 100 mg/kg", "setting": "[1]", "result": 3, "unit": "%"},
      {"measurement": "inhibition in vivo at 50 mg/kg", "setting": "[2]", "result": 23, "unit": "%"},
      {"measurement": "inhibition in vivo at 50 mg/kg", "setting": "[3]; [5]", "result": 50, "unit": "%"}
    ]},
    {"smiles": "Cc1onc(C(=O)O)c1C(=O)Nc1ccc(OC(F)(F)F)cc1", "note": "[known compound, reference compound]", "values": [
      {"measurement": "detectability of the active metabolite at 72 hours after administration", "setting": "[4]; plasma, 72 hours", "result": "still being detectable"}
    ]}
  ]
}
